Where two headings read alike, the source gives them in different places.
How the values were obtained:
MMP-9 [1] = target: T1, MMP-9 (Homo sapiens, UniProt P14780); experiment: In vivo MMP inhibition (enzyme in implanted dialysis tubing); parameters: species or system rat (Sprague-Dawley) or mouse (CD-1)
Experimental: A 2 cm piece of dialysis tubing (molecular weight cut-off 12-14,000, 10 mm flat width) containing matrix metalloproteinase enzyme (stromelysin, collagenase or gelatinase in 0.5 mL of buffer) is implanted either ip or sc (in the back) of a rat (Sprague-Dawley, 150-200g) or mouse (CD-1,25-50g) under anesthesia. Drugs are administered PO, IP, SC or IV through a canula in the jugular vein. Drugs are administered in a dose volume of 0.1 to 0.25 mL/animal. Contents of the dialysis tubing is collected and enzyme activity assayed. Enzyme reaction rates for each dialysis tube are calculated. Tubes from at least 3 different animals are used to calculate the mean± sem. Statistical significance (p<0.05) of vehicle-treated animals versus drug-treated animals is determined by analysis of variance. (Agents and Actions 21: 331, 1987).

TACE = TACE (Homo sapiens, UniProt P78536); experiment: TACE inhibition (fluorescent peptidyl substrate); type: biochemical
MMP-9 [2] = target: T1, MMP-9; experiment: MMP-9 inhibition (thiopeptide or fluorescent peptide substrate assay); type: biochemical; conditions: for IC50: read-out: MMP-9 IC50
MMP-1 = target: T2, MMP-1 (Homo sapiens, UniProt P03956); experiment: MMP-1 inhibition (thiopeptide or fluorescent peptide substrate assay); type: biochemical; conditions: for IC50: read-out: MMP-1 IC50
T2 sequence (P03956 100-469): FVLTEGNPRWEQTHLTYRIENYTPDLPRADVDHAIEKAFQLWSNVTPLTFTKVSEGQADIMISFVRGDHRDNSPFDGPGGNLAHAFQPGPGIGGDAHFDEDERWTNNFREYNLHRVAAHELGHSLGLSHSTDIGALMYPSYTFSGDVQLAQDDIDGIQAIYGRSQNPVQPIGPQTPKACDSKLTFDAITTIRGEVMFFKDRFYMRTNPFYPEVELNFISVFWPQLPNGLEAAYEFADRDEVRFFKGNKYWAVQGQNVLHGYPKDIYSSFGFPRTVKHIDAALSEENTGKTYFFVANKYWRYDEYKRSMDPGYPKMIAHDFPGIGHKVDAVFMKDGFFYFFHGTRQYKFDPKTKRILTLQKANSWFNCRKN
Experimental: The enzyme activity is measured by the rate of the color increase. The thiopeptide substrate is made up fresh as a 20 mM stock in 100% DMSO and the DTNB is dissolved in 100% DMSO as a 100 mM stock and stored in the dark at room temperature. Both the substrate and DTNB are diluted together to 1 mM with substrate buffer (50 mM HEPES pH 7.5, 5 mM CaCl2) before use. The stock of enzyme is diluted with assay buffer (50 mM HEPES, pH 7.5, 5 mM CaCl2, 0.02% Brij) to the desired final concentration.
Alternatively, a fluorescent peptide substrate is used. In this assay, the peptide substrate contains a fluorescent group and a quenching group. Upon cleavage of the substrate by an MMP, the fluorescence that is generated is quantitated on the fluorescence plate reader. The assay is run in HCBC assay buffer (50mM HEPES, pH 7.0, 5 mM Ca^+2, 0.02% Brij, 0.5% Cysteine), with human recombinant MMP-1, MMP-9, or MMP-13. The substrate is dissolved in methanol and stored frozen in 1 mM aliquots. For the assay, substrate and enzymes are diluted in HCBC buffer to the desired concentrations. Compounds are added to the 96 well plate containing enzyme and the reaction is started by the addition of substrate.
For either the thiopeptide or fluorescent peptide assays, the slope of the line is calculated and represents the reaction rate. The linearity of the reaction rate is confirmed (r^2 >0.85). The mean (x±sem) of the control rate is calculated and compared for statistical significance (p<0.05) with drug-treated rates using Dunnett's multiple comparison test.

MMP-13 = MMP-13 (Homo sapiens, UniProt P45452); experiment: MMP-13 inhibition (thiopeptide or fluorescent peptide substrate assay); type: biochemical
Experimental: The enzyme activity is measured by the rate of the color increase. The thiopeptide substrate is made up fresh as a 20 mM stock in 100% DMSO and the DTNB is dissolved in 100% DMSO as a 100 mM stock and stored in the dark at room temperature. Both the substrate and DTNB are diluted together to 1 mM with substrate buffer (50 mM HEPES pH 7.5, 5 mM CaCl2) before use. […] Alternatively, a fluorescent peptide substrate is used. In this assay, the peptide substrate contains a fluorescent group and a quenching group. Upon cleavage of the substrate by an MMP, the fluorescence that is generated is quantitated on the fluorescence plate reader. […] The substrate is dissolved in methanol and stored frozen in 1 mM aliquots. For the assay, substrate and enzymes are diluted in HCBC buffer to the desired concentrations. Compounds are added to the 96 well plate containing enzyme and the reaction is started by the addition of substrate. […] For either the thiopeptide or fluorescent peptide assays, the slope of the line is calculated and represents the reaction rate. […] The mean (x±sem) of the control rate is calculated and compared for statistical significance (p<0.05) with drug-treated rates using Dunnett's multiple comparison test.

cartilage = experiment: Cartilage degradation in the rat (cartilage-sponge implant); type: in vivo, rat (Lewis strain); conditions: average daily dose 50 mg/kg, intraperitoneal osmotic minipump; for % Inhibition of Cartilage Collagen Loss: * = p<0.05 vs vehicle-treated rats
Experimental: Twenty mg slices of cartilage are obtained from the knee of freshly slaughtered cattle. Discs of cellulose sponge, 6 mm in diameter, are cut and a 2 mm hole put in the center of the sponge. 100 µl of a sterile suspension containing 1 mg of heat-killed Mycobacterium tuberculosis is applied to the sponge. After air-drying overnight, the sponges are autoclaved and a cartilage slice is placed in the hole cut in the sponge disc. Under sterile conditions, the cartilage-sponge disc is placed subcutaneously in the back of an anesthetized rat (Lewis strain, 200 to 250 g). The incision is closed with staples and the rat allowed to recover from anesthesia. Approximately 5 days after sponge implantation, osmotic minipumps (Alza Corp., Palo Alto, CA), containing either investigational compound or vehicle were implanted intraperitoneally in the anesthetized rat under sterile conditions After 19 days, the rats are euthanized by asphyxiation with CO2 and the granulomas containing the implanted sponge excised from the surrounding tissue.
The weight of the piece of cartilage recovered from the sponge was recorded and the collagen content of the cartilage was determined. The mean of the cartilage weights and collagen content was determined for the vehicle and drug-treated groups. The inhibition of cartilage weight and collagen content loss produced by the compounds compared with vehicle-treated rats was determined. Statistical significance (p< 0.05) of vehicle-treated animals versus drug-treated animals was determined by analysis of variance.
Reference: Bishop J., Greenham AK., Lewis EJ. A novel in vivo model for the study of cartilage degradation. J. Pharmacol. Toxicol. Methods, 30:19-25, 1993.

[3] = 100 mg/kg, ip (intraperitoneal)

T1 sequence (P14780 94-707): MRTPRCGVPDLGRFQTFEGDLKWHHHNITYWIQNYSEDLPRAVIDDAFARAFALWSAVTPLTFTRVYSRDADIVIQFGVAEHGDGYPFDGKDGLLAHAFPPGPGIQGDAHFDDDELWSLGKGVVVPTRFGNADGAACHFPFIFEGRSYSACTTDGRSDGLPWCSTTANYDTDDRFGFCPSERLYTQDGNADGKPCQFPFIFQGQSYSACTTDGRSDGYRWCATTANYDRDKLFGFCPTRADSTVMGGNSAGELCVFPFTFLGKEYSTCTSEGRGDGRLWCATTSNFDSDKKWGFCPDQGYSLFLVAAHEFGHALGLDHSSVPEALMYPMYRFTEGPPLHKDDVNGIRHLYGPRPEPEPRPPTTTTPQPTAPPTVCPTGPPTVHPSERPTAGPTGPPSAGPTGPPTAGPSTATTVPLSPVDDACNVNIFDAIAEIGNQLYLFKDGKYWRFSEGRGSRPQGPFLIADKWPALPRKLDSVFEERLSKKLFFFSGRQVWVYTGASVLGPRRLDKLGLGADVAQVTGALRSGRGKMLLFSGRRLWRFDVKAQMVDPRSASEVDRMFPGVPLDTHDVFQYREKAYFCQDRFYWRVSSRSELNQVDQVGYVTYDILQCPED
Sequence of TACE (P78536 215-824): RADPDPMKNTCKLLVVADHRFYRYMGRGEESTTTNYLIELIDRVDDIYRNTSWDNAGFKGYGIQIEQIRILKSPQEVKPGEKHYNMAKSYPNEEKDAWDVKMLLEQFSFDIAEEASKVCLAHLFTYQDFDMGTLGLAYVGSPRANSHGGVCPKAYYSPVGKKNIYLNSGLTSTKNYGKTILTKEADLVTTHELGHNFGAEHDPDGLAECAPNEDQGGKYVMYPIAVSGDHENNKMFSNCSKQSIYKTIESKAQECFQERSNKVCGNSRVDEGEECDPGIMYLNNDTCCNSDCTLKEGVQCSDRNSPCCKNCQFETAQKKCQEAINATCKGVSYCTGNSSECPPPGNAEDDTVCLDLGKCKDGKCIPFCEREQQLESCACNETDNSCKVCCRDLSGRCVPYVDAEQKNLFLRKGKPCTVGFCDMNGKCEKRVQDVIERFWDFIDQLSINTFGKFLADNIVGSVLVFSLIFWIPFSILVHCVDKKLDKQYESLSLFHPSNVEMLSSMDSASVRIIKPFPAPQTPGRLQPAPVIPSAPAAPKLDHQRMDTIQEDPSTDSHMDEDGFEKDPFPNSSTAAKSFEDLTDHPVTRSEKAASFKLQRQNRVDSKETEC

Row | Compound | in-vivo MMP % inhibition vs. MMP-9 (MMP-9 [1]; [3]) | IC50 (TACE; read-out: TACE IC50) [nM] | IC50 (MMP-9 [2]) [nM] | IC50 (MMP-1) [nM] | IC50 (MMP-13; read-out: MMP-13 IC50) [nM] | also measured
1 | COc1ccc(S(=O)(=O)N(Cc2ccccc2)c2c(C)cc(Br)cc2C(=O)NO)cc1 [Example 25, 2-[Benzyl-(4-methoxy-benzenesulfonyl)-amino]-5-bromo-N-hydroxy-3-methyl-benzamide] | 32%(100), ip | > 1000 |  |  |  | 
2 | COc1ccc(S(=O)(=O)N(Cc2ccccc2)c2c(OCc3ccccc3)cccc2C(=O)NO)cc1 [Example 34, 2-[Benzyl-(4-methoxy-benzenesulfonyl)-amino]-3-benzyloxy-N-hydroxy-benzamide] | 31.6(100), ip % | > 1000 | 28 | 281 | 69 | 
3 | COc1ccc(S(=O)(=O)N(Cc2cccnc2)c2c(C)cccc2C(=O)NO)cc1 [Example 61, N-Hydroxy-2-[(4-methoxy-benzenesulfonyl)-pyridin-3-ylmethyl-amino]-3-methyl-benzamide] |  | 289 |  |  |  | in-vivo MMP % inhibition vs. MMP-9 (MMP-9 [1]; 20 mg/kg, po (oral)): 46(20), po %; in-vivo MMP % inhibition vs. MMP-9 (MMP-9 [1]; 50 mg/kg, po (oral)): 59(50), po %
4 | COc1ccc(S(=O)(=O)N(Cc2cccnc2)c2c(C)cccc2C(=O)NO)cc1 [Example 83, N-Hydroxy-2-[(4-methoxy-benzenesulfonyl)-pyridin-3-ylmethyl-amino]-3-methyl-benzamide] |  |  |  |  |  | % Inhibition of Cartilage Weight Loss (cartilage): 44.6%; % Inhibition of Cartilage Collagen Loss (cartilage): 51.2* %
5 | COc1ccc(S(=O)(=O)N(Cc2cccnc2)c2c(C)cc(Br)cc2C(=O)NO)cc1 [Example 91, 5-Bromo-N-hydroxy-2-[(4-methoxy-benzenesulfonyl)-pyridin-3-ylmethyl-amino]-3-methyl-benzamide] |  |  | 24 |  | 20 | in-vivo MMP % inhibition vs. MMP-9 (MMP-9 [1]; 100 mg/kg, po (oral)): 55(100), po %
6 | CCCN(c1c(C)cc(C)cc1C(=O)NO)S(=O)(=O)c1ccc(OC)cc1 [Example 117, N-Hydroxy-2-[(4-methoxy-benzenesulfonyl)-propyl-amino]-3,5-dimethyl-benzamide] | 28.3(100), ip % | 154 | 10 | 114 | 10 | 
7 | COc1ccc(S(=O)(=O)N(C)c2c(CN3CCN(C)CC3)cc(Br)cc2C(=O)NO)cc1 [Example 313, 5-Bromo-N-hydroxy-2-[(4-methoxy-benzenesulfonyl)-methyl-amino]-3-(4-methyl-piperazin-1-ylmethyl)-benzamide] |  |  | 1.4 | 180 |  | IC50 (TACE): 26 nM; % Inhibition of Cartilage Weight Loss (cartilage): 45.5%; % Inhibition of Cartilage Collagen Loss (cartilage): 28.0* %
8 | Cc1cccc(C(=O)NO)c1N(Cc1cccnc1)S(=O)(=O)c1ccc(-c2ccc3c(c2)OCO3)cc1 [Example 415, 2-[(4-Benzo[1,3]dioxol-5-yl-benzenesulfonyl)-pyridin-3-ylmethyl-amino]-N-hydroxy-3-methyl-benzamide] |  |  |  |  |  | inhibition at 1 µM (MMP-9 [2]; read-out: MMP-9 % inhibition, footnote: 1µM): 43%; MMP-1 % inhibition (MMP-1; concentration given as (10), unit not given): 37%(10); IC50 (MMP-13): 26 nM; inhibition at 1 µM (TACE; at 1µM concentration): 9%
9 | N-Hydroxy-2-[(4-methoxy-benzenesulfonyl)-pyridin-3-ylmethyl-amino]-5-methyl-3-thiophen-2-yl-benzamide [Example 145] |  | 158 | 7 | 55 | 3 | 

— patent EP0938471B1, “THE PREPARATION AND USE OF ORTHO-SULFONAMIDO ARYL HYDROXAMIC ACIDS AS MATRIX METALLOPROTEINASE AND TACE INHIBITORS” (priority 1996, dated 1998)
